Laboratory results from paper PMC3930514, “Deletion of Ubiquitin Fold Modifier Protein Ufm1 Processing Peptidase Ufsp in L. donovani Abolishes Ufm1 Processing and Alters Pathogenesis” (PLoS Neglected Tropical Diseases, 2014).

How the values were obtained:
[1] = biological target: T1, LdUfsp (recombinant Ufsp, rLdUfsp) (Leishmania donovani, UniProt E9BRI1); experiment: biolayer interferometry (Octet, streptavidin sensor); type: binding; conditions: biotinylated protein immobilised
T1 construct: gene LdCL_340047700; partial ORF 427-1518 bp (about codons 143-506) in pEXP5-CT-Topo, E. coli BL21-pLysS, native purification; 43 and 39 kDa bands; L. infantum homolog is LinJ.34.3830
T1 sequence (E9BRI1 entry or part of it): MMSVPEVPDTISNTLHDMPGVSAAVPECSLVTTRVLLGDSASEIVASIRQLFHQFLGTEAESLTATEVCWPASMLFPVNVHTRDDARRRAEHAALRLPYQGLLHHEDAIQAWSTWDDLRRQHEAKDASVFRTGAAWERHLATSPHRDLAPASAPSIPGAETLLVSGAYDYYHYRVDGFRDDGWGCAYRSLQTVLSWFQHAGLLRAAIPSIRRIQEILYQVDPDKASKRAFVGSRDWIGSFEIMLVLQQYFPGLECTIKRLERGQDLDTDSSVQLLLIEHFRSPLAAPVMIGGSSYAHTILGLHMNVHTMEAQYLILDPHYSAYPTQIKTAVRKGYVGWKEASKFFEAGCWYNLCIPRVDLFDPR

[2] = biological target: T1, LdUfsp (recombinant Ufsp, rLdUfsp); experiment: FRET cleavage assay with YFP-Ufm1-ECFP; type: biochemical; conditions: 0.1, 1, 10 µg/ml; 250 nM substrate; pH 7.5, 37 °C, 60 min

## C[C@@H]1[C@H](O)[C@@H](C)/C=C/C=C/C=C/C=C/C=C/C=C/C=C/[C@H](O[C@@H]2O[C@H](C)[C@@H](O)[C@H](N)[C@@H]2O)C[C@@H]2O[C@](O)(C[C@@H](O)C[C@@H](O)[C@H](O)CC[C@@H](O)C[C@@H](O)CC(=O)O[C@H]1C)C[C@H](O)[C@H]2C(=O)O [Amphotericin B]
[1]
  biolayer interferometry (Octet, streptavidin sensor): Results showed that Amphotericin B can bind to the biotinylated Ufsp protein
[2]
  % Ufm1 processing activity (Δ530, % of 20 mM N-ethyl maleimide): Amphotericin B showed inhibitory effects on the Ufm1 processing activity
